What was measured:
C. elegans = assay: Autophagic flux and lysosomal reporters in C. elegans; type: in vivo
Protocol: FIGS. 12A-12B illustrate that coumarin 106 (“C1”, “AIC106”) promotes induction of autophagic markers. FIG. 12A) Increased APG:APL fusion as assessed by green to red fluorescence shift following addition of 20 μM C1 versus DMSO-only control to ttdLGG-1:GFP worms expressing a pH sensitive GFP. FIG. 12B) Increases in autophagic flux as assessed by increased GFP fluorescence within p62::GFP and plmp-1::GFP expressing worms following addition of 20 μM C1 versus DMSO-only controls.
FIG. 19, panels A-G: AIC106 increases autophagic flux and lysosomal function in C. elegans. Panel A) Relative fold change in mRNA of autophagosome-specific protein p62/Sqstm-1 compared to DMSO-control was quantified using qRT-PCR in young adult wild-type N2 worms post-24 hours treatment with AIC106. [N=3 independent experiments (mean±SD). *p<0.05 and **p<0.01, by one-way ANOVA with Sidak's multiple comparisons test]. Panel B) Changes in p62/SQSTM-1 expression were measured by quantifying GFP intensity in an individual GFP-tagged p62/SQSTM-1 worm (HZ589) post-24 hours treatment with AIC106 and DMSO-control, followed by RNAi treatment. [N=3 independent experiments (mean±SD). ****p<0.0001, by one-way ANOVA with Tukey's multiple comparisons test]. Panel C) p62/SQSTM-1; GFP (HZ589) was monitored by fluorescence microscopy. Panel D) Changes in lysosomal number were measured by quantifying GFP intensity in an individual GFP-tagged LMP-1 worm (RT258) post-24 hours treatment with AIC106 and DMSO-control. [N=3 independent experiments (mean±SD). ****p<0.0001, by unpaired t-test]. Panel E) RT258 worms were monitored by fluorescence microscopy. Panel F) Changes in lysosomal number were measured by quantifying fluorescence intensity in an individual Lysotracker Red stained wild type N2 worms post-24 hours treatment with AIC106 and DMSO-control. [N=3 independent experiments (mean±SD). ****p<0.0001, by unpaired t-test]. Panel G) Lysotracker Red stained wild type N2 worms were monitored by fluorescence microscopy.
FIG. 26, panels A-B: AIC106 enhances autophagy flux in C. elegans. Panel A) Monitoring of tandem reporter lgg-1p::mCherry::GFP::lgg-1 expressing worms was performed by fluorescence microscopy. Panel B) Effects of AIC106 treatment on GFP and mCherry by time were measured by fluorescence microscopy after AIC106 or DMSO-control treatment for 24 h. [N=3 independent experiments (mean±SD). *p<0.05 and **p<0.01, by unpaired t-test].
Synchronized populations of day-1 adult worms expressing reporter GFP transgene or stained with a dye/stain (Lysotracker and TMRM) and grown at 20° C. were transferred to compound or DMSO plates. Fluorescence expression was analyzed at the time specified for each individual strain (see figure legends). Worms were paralyzed in 2 mM levamisole, mounted on 2% agarose pads with glass cover slips, and imaged immediately with an Axio Zeiss microscope. Appropriate filters were used to visualize GFP, Lysotracker red and TMRM were visualized under rhodamine filter. Approximately 20-40 worms per treatment were used. Fluorescence intensity normalized to worm area was measured using NIH ImageJ software. Transgenic reporters used in the study are HZ589 him-5(e1490) V; bpIs151[sqst-1p::sqst-1::GFP+unc-76(+)], RT258 unc-119(ed3) III; pwIs50 [lmp-1::GFP+Cbr-unc-119(+)], UA44 UA44(baIn11[Pdat-1::α-syn, Pdat-1::GFP]), AM141 rmIs133 [unc-54p::Q40::YFP]LAMP-1:GFP.
Synchronized day-1 adult N2 worms were transferred to DMSO control or compound treated plates for 24 hours at 20° C. On day-2, worms were transferred to 35 mm OP50 seeded assay plates treated with compound or DMSO plates overlaid with 1 μM LysoTracker™ Red DND-99 (Molecular Probes) for 24 hours at 20° C. Post-24 hours on LysoTracker stain, worms were picked and washed in a fresh drop of 1×M9 medium to remove excess stain and mounted on 2% agarose pad slides for microscopic visualization. Worm images were taken in a Zeiss Imager Z1 fluorescence microscope using rhodamine filters. […]

TFEB = TFEB activation screen, % activation/control at 24 and 48 hrs (Table 1); type: cell-based, human
Protocol: FIG. 25, panels A-B::AIC106 identified as a lead compound in a TFEB-transcription based screen. Panel A) Rat Neuronal N27 cells were transfected with a vector construct driving expression of secreted-Gaussia luciferase (Sec-Gaussia) in control of 2 kb human TFEB promoter. Next day, cells were seeded into 96-well cell culture plate and exposed to compounds (30 μM) from natural product library (NPL-640) or DMSO-control. After 24 and 48 hours of compound treatment supernatant from the cells was collected and TFEB promoter activity determined by quantifying luciferase activity. Panel B) Effects of AIC106 treatment on HLH-30 expression after 24 hours treatment were determined by immunoblot against GFP in young adult stage of GFP-tagged HLH-30 strain (MAH235) following total protein extraction.
It was discovered that small structural alterations in the C1 compound can have significant effects on the degree of TFEB activation (see, e.g., FIG. 17) the screening systems described herein identified a number of structures related to C1 that similarly induce TFEB.
In vitro drug screening studies. […] We utilized for these studies a 3000 compound natural product derivative library (Timtec, Newark, DE) in […] transfected with a sensitive TFEB promotor-Gaussian luciferase construct. […] C1 is a coumarin-related compound, part of a family of natural benzopyrones found in many edible plants.
To identify novel transcriptional inducers of TFEB, we transfected rat neuronal N27 cells with a vector driving expression of secreted-luciferase under control of the human TFEB promoter. […] AIC106 belongs to a family of coumarin compounds containing an active benzopyrone ring.

## O=c1oc2c3c4c(cc2c2c1CCC2)CCCN4CCC3 [C1, 2,3,6,7,10,11-Hexahydro-1H,5H-cyclopenta(3,4)(1)benzopyrano(6,7,8-ij)quinolizin-12(9H)-one]
C. elegans; 20 μM C1 (FIG. 12)
  autophagic flux: increased autophagic flux
C. elegans; 24 h (FIG. 26)
  tandem mCherry-GFP-LGG-1 reporter (autophagosomal:lysosomal fusion): decreased GFP intensity in conjunction with significant increase in mCherry-only intensity
C. elegans; HZ589 worms, 24 hours
  p62/SQSTM-1 protein levels (GFP): enhanced p62/SQSTM-1 protein levels
C. elegans; N2 worms
  lysosomal biogenesis by LysoTracker red staining: validated via LysoTracker red staining
C. elegans; N2 worms, 24 hours
  p62/Sqstm-1 mRNA: increased mRNA levels of p62/Sqstm-1
C. elegans; RT258 worms, 24 hours
  lysosomal biogenesis (GFP-tagged LAMP-1/LMP-1): increase in lysosomal biogenesis
TFEB; 24 hrs
  % activation/Control 24 hrs: 350.83%
TFEB; 48 hrs
  % activation/Control 48 hrs: 413.96%

Reference: patent US12673039B2, “Methods of inducing autophagy using coumarin derivatives and related compounds” (Buck Institute for Research on Aging, priority 2019, dated 2026)
